The source of these data is US9458194B2, “Compounds useful in the treatment and/or care of the skin and their cosmetic or pharmaceutical compositions” (Lubrizol Advanced Materials, Inc., priority 2013, dated 2016).

Where “and” joins values, the source holds several entries; their conditions need not be identical. Equal entries are not always repeated.

Common to all, as to assay type: cell-based
One assay relates to LOXL1. Nature of the assay: Immunofluorescence of LOXL1 protein expression in human dermal fibroblasts. The conditions noted are these: 0.5 mg/mL, 48 hours, HDFa. Here is the method: In this experiment the number of times that the expression of the proteins fibulin-5 and LOXL1 in human dermal fibroblasts is increased with regard to the basal levels in untreated cells (negative control) when treating the cells with 0.5 mg/ml of the product Ac-L-Asp-L-Val-L-Lys-L-Tyr-OH and it is compared with the effect of Interleukin-1β (IL-1β) at 20 ng/ml and TGF-β at 5 ng/ml (positive controls), which increase an average of 1.5 times and 2 times, respectively, the expression of these proteins, in the same conditions.
Adult human dermal fibroblasts were seeded (HDFa) (2.5×10^3 cells/well) in a 96-well transparent plate, treated with polylysine, and were incubated in complete medium 106 for 72 hours at 37° C. in an atmosphere with 5% CO2. After the incubation, the cells were treated with the different compounds in complete medium 106 for 48 hours at 37° C. in an atmosphere with 5% CO2. As positive controls of increase of the expression of the proteins fibulin-5 and LOXL1, 5 ng/ml of TGF-β and 20 ng/ml of IL-1β were used and as a negative control untreated cells were used, just with complete medium 106. The incubations and the treatments were carried out in quadruplicate for each condition. After the treatment, the levels of expression of both proteins were quantified relatively by using specific fluorescent antibodies, photographic recording by microscopy and subsequent quantification of the fluorescent signal using image processing software, the number of total cells by fluorescent staining of the nuclei (DAPI) and subsequent quantification in the same images. […] 16 hours later all the samples were stained with DAPI (4′,6-Diamidino-2-Phenylindole), fluorescent marker for the staining of nuclei, and the photographic recording was carried out by fluorescence microscopy in a Leica microscope. 2-4 images were taken per condition and per protein and the fluorescent signals were quantified (IOD) corresponding to each protein and the nuclei by means of image analysis software. […]

The next assay deals with elastin. As to the kind of experiment: Elastin synthesis in human dermal fibroblasts (Fastin Elastin Assay). The settings on record: 0.01 μg/ml, 48 hours, vs negative control. As for the experimental part:
Stimulation of elastin synthesis induced by Ac-L-Asp-L-Val-L-Lys-L-Tyr-OH was evaluated by means of a quantitative method of staining, Fastin Elastin Assay (Tebu-Bio). Human dermal fibroblasts were trypsinized and seeded at a density of 7×10^4 cells/well in 6-well plates. After 72 hours of incubation at 37° C., 5% CO2, with a humidified atmosphere, a new medium was added with 0.01 μg/mL Ac-L-Asp-L-Val-L-Lys-L-Tyr-OH. Untreated cells were used as negative controls and cells treated with TGF-1β (Peprotech) were used as positive controls. The cells were incubated for an additional 48 hours at 37° C., 5% CO2, with humidified atmosphere. Subsequently, the elastin was solubilized and extracted, for which the cells were washed twice with PBS (Sigma) and a solution was added to uncouple the cells (Cell Dissociation Solution, Sigma). The suspension of cells was transferred to centrifuge tubes, 1 M Oxalic Acid was added provided by the kit and they were incubated at 100° C. for 1 hour. Once the elastin became soluble, a calibration curve was prepared with the elastin provided with the kit. From that point, the samples and dilutions of the calibration curve were processed following the kit instructions to isolate and stain the elastin. Lastly, the dye was extracted and the absorbency reading was carried out at a wave length of 540 nm in a TECAN GENios spectrophotometric reader.

The subject of another assay is type-I collagen. As to the kind of experiment: Type-I collagen synthesis in human dermal fibroblasts (ELISA). The conditions noted are these: 0.01 μg/ml, 48 hours, vs negative control. As for the experimental part:
Stimulation of type-I collagen synthesis induced by cosmetic active ingredients was assessed by means of an ELISA (Enzyme-Linked Immunosorbent Assay) method.
Human dermal fibroblasts were trypsinized and seeded at a density of 5×10^4 cells/well in 48-well plates. After 24 hours of incubation at 37° C., 5% CO2, with a humidified atmosphere, a new medium was added with 0.01 μg/mL Ac-L-Asp-L-Val-L-Lys-L-Tyr-OH. Untreated cells were used as negative controls. The cells were incubated for an additional 48 hours at 37° C., 5% CO2, with humidified atmosphere. Subsequently, the medium was collected from each well to be analyzed by ELISA. A calibration curve with type-I collagen was prepared (Sigma) and the dilutions of this calibration curve were transferred to 96-well plates together with the mediums collected from the cells. The plates were left at 4° C. in a humid atmosphere for one night. Next the wells were washed three times with a washing solution prepared with PBS at 0.05% of Tween-20 (Sigma) and then any non-specific binding of the primary antibody with a solution of PBS at 3% BSA (sigma) was blocked. […] The reaction was stopped adding a solution of H2SO4 3 M and the absorbency reading was carried out at a wave length of 490 nm in a TECAN GENios spectrophotometric reader. […]
For orientation: An ELISA detects its analyte on a solid surface through an enzyme-linked reagent.

Take “Ac-L-Asp-L-Val-L-Lys-L-Tyr-OH (Ac-DVKY-OH)”: the “Increase in the expression of the protein LOXL1 with regard to the negative control” value in the assay on LOXL1 is 73% and 72.71%. For the same substance, in the assay on elastin, the “INCREASE IN ELASTIN SYNTHESIS” value is reported as 21.7%. In addition, the “INCREASE IN SYNTHESIS OF TYPE-I COLLAGEN” value in the assay on type-I collagen came to 47.3%.
